Laboratory results as given in article PMC7562955 (Nature Communications, 2020).
Where “and” joins values, the source holds several entries; their conditions need not be identical. Identical values can stand only once. Like-named read-outs stand apart in the source and are kept apart here.

Legend:
[1] = test system: lupus-prone NZB/W F1 mice; assay: Efficacy study in lupus-prone NZB/W F1 mice (proteinuria, survival, kidney histopathology); format: in vivo; details: for proteinuria (urinary albumin/creatinine ratio), mean / Histological score (glomerular lesion), Mean: n = 6; for Histological score (glomerular lesion), individual mouse: 0–4 scale
Procedure: At the initiation of treatment, mice were randomly divided according to bodyweight and proteinuria level (urinary albumin/creatinine ratio over 300 mg g^−1) and were orally once or twice daily. […] During the treatment, nearly dead individuals were euthanized, then sera and kidneys were collected. In this case, the last known values for urinary protein was carried forward.
Urine protein was quantified by automatic analyzer (BioMajesty ZERO(JCA-ZS050), JEOL Ltd, Japan) with Mouse Urinary Albumin Assay Kit (S-type) (AKRAL-021S, Shibayagi Co.,Ltd., Japan). Urine creatinine levels were measured in the same samples. The urine albumin excretion rate is expressed as the ratio of albumin to creatinine. Time course of proteinuria were analyzed by Dunnett’s multiple-range test.
The both kidneys were fixed in 10% neutral-buffered formalin, embedded in paraffin, sectioned, stained with hematoxylin and eosin (HE) and periodic acid-Schiff (PAS), and examined by light microscopy. Glomerulonephritis was scored on a 0–4 scale, based on the intensity and extent of histopathological changes. A grade of 0 was given to kidney without glomerular lesions; a grade of 1 was given when there was minimal thickening of the mesangium; a grade of 2 was given when there was a noticeable increase in both mesangial and glomerular capillary cellularity; a grade of 3 was given when the preceding conditions were observed, along with superimposed inflammatory exudates and capsular adhesions; and a grade of 4 was given when the obliteration of the glomerular architecture included 70% of glomeruli. These classifications were used to grade 20 glomeruli within one area, and the mean glomerular histopathological score was calculated for each mouse. Data were analyzed by Tukey’s test.

[2] = Pharmacokinetic profiling after oral dose in NZB/W F1 mice; format: in vivo, mouse; details: for plasma Concentration, individual mouse / concentration at 3 h / concentration at 6 h / concentration at 24 h: 100 mg/kg po; for concentration at 3 h / concentration at 6 h / concentration at 24 h: female, NZB/W F1, mouse, plasma, oral, 100 mg/kg
Procedure: Cpd-7 was orally administered to 35-week-old female NZB/W F1 mice at 100 mg kg^−1 dissolved in 0.5 w/v% Methyl Cellulose 400 Solution (WAKO, Japan). Blood was collected over 24 h from the isoflurane-anesthetized mice via the jugular vein. The plasma samples were separated by centrifugation. Cpd-7 was extracted from the plasma samples by protein precipitation with methanol and measured using LC/MS/MS (HPLC: SHIMADZU CORPORATION, Japan; MS: AB Sciex Pte. Ltd., Japan). The lower limit of quantification was set at 5 ng/mL.

[3] = 100 mg kg−1 po once or twice daily, four weeks

## CCOc1nc(C)c2nc(-c3cncc(F)c3)n(Cc3ccc(CN4C[C@@H]5C[C@H]4CN5C)cc3)c2n1 [Cpd-7]
[1]; 100 mg kg-1 po B.I.D, 0 wk
  proteinuria (urinary albumin/creatinine ratio), mean: 1719.9
[1]; 100 mg kg-1 po B.I.D, 1 wk
  proteinuria (urinary albumin/creatinine ratio), mean: 7204.5
[1]; 100 mg kg-1 po B.I.D, 2 wk
  proteinuria (urinary albumin/creatinine ratio), mean: 747.0
[1]; 100 mg kg-1 po B.I.D, 3 wk
  proteinuria (urinary albumin/creatinine ratio), mean: 150.9
[1]; 100 mg kg-1 po B.I.D, 4 wk
  proteinuria (urinary albumin/creatinine ratio), mean: 121.0
[1]; 100 mg kg-1 po Q.D., 0 wk
  proteinuria (urinary albumin/creatinine ratio), mean: 1780.7
[1]; 100 mg kg-1 po Q.D., 1 wk
  proteinuria (urinary albumin/creatinine ratio), mean: 10042.5
[1]; 100 mg kg-1 po Q.D., 2 wk
  proteinuria (urinary albumin/creatinine ratio), mean: 9132.2
[1]; 100 mg kg-1 po Q.D., 3 wk
  proteinuria (urinary albumin/creatinine ratio), mean: 6691.2
[1]; 100 mg kg-1 po Q.D., 4 wk
  proteinuria (urinary albumin/creatinine ratio), mean: 3804.5
[1]; 100 mg kg−1 once or twice daily
  glomerular lesion scores vs vehicle: significantly reduced
[1]; [3]
  death/survival: prevented death in all mice
  proteinuria vs vehicle: significant decrease in proteinuria
[1]; B.I.D. 100 mg kg-1
  Histological score (glomerular lesion), individual mouse: 0 and 1
  Histological score (glomerular lesion), Mean: 0.3333
[1]; B.I.D. 100 mg kg-1, day 0
  Survival rate: 100%
[1]; B.I.D. 100 mg kg-1, day 1
  Survival rate: 100%
[1]; B.I.D. 100 mg kg-1, day 2
  Survival rate: 100%
[1]; B.I.D. 100 mg kg-1, day 3
  Survival rate: 100%
[1]; B.I.D. 100 mg kg-1, day 4
  Survival rate: 100%
[1]; B.I.D. 100 mg kg-1, day 5
  Survival rate: 100%
[1]; B.I.D. 100 mg kg-1, day 6
  Survival rate: 100%
[1]; B.I.D. 100 mg kg-1, day 7
  Survival rate: 100%
[1]; B.I.D. 100 mg kg-1, day 8
  Survival rate: 100%
[1]; B.I.D. 100 mg kg-1, day 9
  Survival rate: 100%
[1]; B.I.D. 100 mg kg-1, day 10
  Survival rate: 100%
[1]; B.I.D. 100 mg kg-1, day 11
  Survival rate: 100%
[1]; B.I.D. 100 mg kg-1, day 12
  Survival rate: 100%
[1]; B.I.D. 100 mg kg-1, day 13
  Survival rate: 100%
[1]; B.I.D. 100 mg kg-1, day 14
  Survival rate: 100%
[1]; B.I.D. 100 mg kg-1, day 15
  Survival rate: 100%
[1]; B.I.D. 100 mg kg-1, day 16
  Survival rate: 100%
[1]; B.I.D. 100 mg kg-1, day 17
  Survival rate: 100%
[1]; B.I.D. 100 mg kg-1, day 18
  Survival rate: 100%
[1]; B.I.D. 100 mg kg-1, day 19
  Survival rate: 100%
[1]; B.I.D. 100 mg kg-1, day 20
  Survival rate: 100%
[1]; B.I.D. 100 mg kg-1, day 21
  Survival rate: 100%
[1]; B.I.D. 100 mg kg-1, day 22
  Survival rate: 100%
[1]; B.I.D. 100 mg kg-1, day 23
  Survival rate: 100%
[1]; B.I.D. 100 mg kg-1, day 24
  Survival rate: 100%
[1]; B.I.D. 100 mg kg-1, day 25
  Survival rate: 100%
[1]; B.I.D. 100 mg kg-1, day 26
  Survival rate: 100%
[1]; B.I.D. 100 mg kg-1, day 27
  Survival rate: 100%
[1]; B.I.D. 100 mg kg-1, day 28
  Survival rate: 100%
[1]; Q.D. 100 mg kg-1
  Histological score (glomerular lesion), individual mouse: 0 and 2 and 1 and 3
  Histological score (glomerular lesion), Mean: 1
[1]; Q.D. 100 mg kg-1, day 0
  Survival rate: 100%
[1]; Q.D. 100 mg kg-1, day 1
  Survival rate: 100%
[1]; Q.D. 100 mg kg-1, day 2
  Survival rate: 100%
[1]; Q.D. 100 mg kg-1, day 3
  Survival rate: 100%
[1]; Q.D. 100 mg kg-1, day 4
  Survival rate: 100%
[1]; Q.D. 100 mg kg-1, day 5
  Survival rate: 100%
[1]; Q.D. 100 mg kg-1, day 6
  Survival rate: 100%
[1]; Q.D. 100 mg kg-1, day 7
  Survival rate: 100%
[1]; Q.D. 100 mg kg-1, day 8
  Survival rate: 100%
[1]; Q.D. 100 mg kg-1, day 9
  Survival rate: 100%
[1]; Q.D. 100 mg kg-1, day 10
  Survival rate: 100%
[1]; Q.D. 100 mg kg-1, day 11
  Survival rate: 100%
[1]; Q.D. 100 mg kg-1, day 12
  Survival rate: 100%
[1]; Q.D. 100 mg kg-1, day 13
  Survival rate: 100%
[1]; Q.D. 100 mg kg-1, day 14
  Survival rate: 100%
[1]; Q.D. 100 mg kg-1, day 15
  Survival rate: 100%
[1]; Q.D. 100 mg kg-1, day 16
  Survival rate: 100%
[1]; Q.D. 100 mg kg-1, day 17
  Survival rate: 100%
[1]; Q.D. 100 mg kg-1, day 18
  Survival rate: 100%
[1]; Q.D. 100 mg kg-1, day 19
  Survival rate: 100%
[1]; Q.D. 100 mg kg-1, day 20
  Survival rate: 100%
[1]; Q.D. 100 mg kg-1, day 21
  Survival rate: 100%
[1]; Q.D. 100 mg kg-1, day 22
  Survival rate: 100%
[1]; Q.D. 100 mg kg-1, day 23
  Survival rate: 100%
[1]; Q.D. 100 mg kg-1, day 24
  Survival rate: 100%
[1]; Q.D. 100 mg kg-1, day 25
  Survival rate: 100%
[1]; Q.D. 100 mg kg-1, day 26
  Survival rate: 100%
[1]; Q.D. 100 mg kg-1, day 27
  Survival rate: 100%
[1]; Q.D. 100 mg kg-1, day 28
  Survival rate: 100%
[1]; both treatment groups
  toxic signs in body weights or clinical signs: no clear toxic signs
[2]; 3 h
  plasma Concentration, individual mouse: 3240 ng/mL and 2770 ng/mL
[2]; 6 h
  plasma Concentration, individual mouse: 948 ng/mL and 525 ng/mL
[2]; 24 h
  plasma Concentration, individual mouse: 10 ng/mL and 7.55 ng/mL
[2]; 3 h, n = 3, read-out: plasma Concentration, Mean
  concentration at 3 h: 2890 ng/mL
[2]; 3 h, read-out: plasma Concentration, individual mouse
  concentration at 3 h: 2650 ng/mL
[2]; 6 h, n = 3, read-out: plasma Concentration, Mean
  concentration at 6 h: 710 ng/mL
[2]; 6 h, read-out: plasma Concentration, individual mouse
  concentration at 6 h: 658 ng/mL
[2]; 24 h, n = 3, read-out: plasma Concentration, Mean
  concentration at 24 h: 8.63 ng/mL
[2]; 24 h, read-out: plasma Concentration, individual mouse
  concentration at 24 h: 8.33 ng/mL
[2]; single 100 mg kg−1 po
  oral availability: orally available
